The CombiSolv-Exp solvation set (Vermeire and Green 2021)

Assay: solvent given as SMILES

C1CCCCC1
Details | solvation free energy, 298 K [kcal/mol]
in BrC(Br)C(Br)Br | -3.42
in Brc1cccc2ccccc12 | -3.66
in Brc1ccccc1 | -4.07
in C1=Cc2ccccc2C1 | -3.92
in C1CCC(C2CCCCC2)CC1 | -4.09
in C1CCNC1 | -4.04
in C1CCNCC1 | -4.32
in C1CCOC1 | -4.23
in C1COCCO1 | -3.66
in C=CCCCC | -4.22
in C=CCCCCCC | -4.18
in C=CCCCCCCCC | -4.12
in C=CCCCCCCCCCCCCCC | -3.89
in CC1CCS(=O)(=O)C1 | -2.73
in CC1COC(=O)O1 | -2.65
in CC#N | -3.03
in CC(=O)CC(C)C | -3.92
in CC(=O)O | -3.23
in CC(=O)OCc1ccccc1 | -3.53
in CC(=O)c1ccccc1 | -3.52
in CC(C)(C)O | -3.67
in CC(C)=O | -3.58
in CC(C)CC(C)(C)C | -4.15
in CC(C)CCCC(C)CCCC(C)CCCCC(C)CCCC(C)CCCC(C)C | -3.87
in CC(C)CCO | -3.77
in CC(C)CO | -3.93
in CC(C)O | -3.52
in CC(C)OC(C)C | -4.18
in CCBr | -4.31
in CCC#N | -3.57
in CCC(C)(C)OC | -4.3
in CCC(C)=O | -3.79
in CCC(C)O | -3.64
in CCCC#N | -3.45
in CCCC(=O)OCC | -3.93
in CCCC(C)=O | -3.82
in CCCCC | -4.25
in CCCCC#N | -3.58
in CCCCC(CC)COC(=O)CCCCC(=O)OCC(CC)CCCC | -3.77
in CCCCC(CC)COC(=O)c1ccccc1C(=O)OCC(CC)CCCC | -3.6
in CCCCCC | -4.24
in CCCCCC#N | -3.66
in CCCCCC(C)=O | -3.86
in CCCCCCC | -4.2
in CCCCCCCC | -4.18
in CCCCCCCCC | -4.13
in CCCCCCCCC=CCCCCCCCC(=O)OCC(COC(=O)CCCCCCCC=CCCCCCCCC)OC(=O)CCCCCCCC=CCCCCCCCC | -3.86
in CCCCCCCCCC | -4.11
in CCCCCCCCCCCC | -4.03
in CCCCCCCCCCCCCC | -3.91
in CCCCCCCCCCCCCCCC | -3.97
in CCCCCCCCCCCCO | -3.7
in CCCCCCCCCCO | -3.42
in CCCCCCCCN(CCCCCCCC)CCCCCCCC | -3.86
in CCCCCCCCO | -3.73
in CCCCCCCO | -3.72
in CCCCCCO | -3.75
in CCCCCCOC(C)=O | -3.93
in CCCCCN(CCCCC)CCCCC | -4.01
in CCCCCO | -3.71
in CCCCCl | -4.17
in CCCCN(C=O)CCCC | -3.67
in CCCCN(CCCC)CCCC | -3.92
in CCCCO | -3.7
in CCCCOC | -4.2
in CCCCOC(=O)c1ccccc1C(=O)OCCCC | -3.73
in CCCCOC(C)=O | -3.91
in CCCCOCC | -4.07
in CCCCOCCCC | -4.13
in CCCO | -3.59
in CCCOCCC | -4.12
in CCN1CCCC1=O | -3.39
in CCN(CC)C(C)=O | -3.55
in CCN(CC)CC | -4.23
in CCNC(C)=O | -3.41
in CCNC=O | -3.22
in CCO | -3.5
in CCOC(=O)c1ccccc1C(=O)OCC | -3.24
in CCOC(C)(C)C | -4.17
in CCOC(C)=O | -3.78
in CCOCC | -4.19
in CCOCCO | -3.41
in CCOCCOCCOCC | -3.81
in CCOc1ccccc1 | -3.89
in CN1CCCC1=O | -3.18
in CN1CCCCC1=O | -3.37
in CN1CCN(C)C1=O | -3.07
in CN(C)P(=O)(N(C)C)N(C)C | -3.47
in CNC(C)=O | -3.26
in CNC=O | -2.93
in CO | -3.25
in COC(C)(C)C | -4.16
in COC(C)=O | -3.61
in COCCO | -3.15
in COc1ccccc1 | -3.84
in CS(C)=O | -2.5
in Cc1ccc(C)cc1 | -4.17
in Cc1cccc2ccccc12 | -3.8
in Cc1cccc(O)c1 | -3.42
in Cc1ccccc1 | -4.2
in Cc1ccccn1 | -3.91
in ClC(Cl)(Cl)Cl | -4.44
in ClC(Cl)C(Cl)Cl | -3.76
in ClC(Cl)Cl | -4.33
in ClCCCl | -3.93
in ClCCl | -4.1
in Clc1cccc2ccccc12 | -3.88
in Clc1ccccc1 | -4.22
in FC(F)(F)C(F)(F)C(F)(F)C(F)(F)C(F)(F)C(F)(F)C(F)(F)C(F)(F)F | -2.65
in FC(F)(F)C(F)(F)C(F)(F)C(F)(F)C(F)(F)C(F)(F)F | -2.71
in Fc1ccccc1 | -4.12
in ICI | -3.06
in N#CCCCC#N | -2.17
in N#CCCCCC#N | -2.51
in N#CCCOCCC#N | -2.24
in N#CCc1ccccc1 | -3.16
in N#Cc1ccccc1 | -3.54
in NC=O | -1.36
in NCCO | -1.69
in NCc1ccccc1 | -3.46
in Nc1ccccc1 | -3.07
in O | 1.22
in O=C1CCCCC1 | -3.85
in O=C1CCCO1 | -2.81
in O=C(O)C(Cl)Cl | -3.29
in O=CN1CCOCC1 | -2.65
in O=Cc1ccco1 | -3.01
in OC1CCCCC1 | -3.69
in OCCCCCO | -2.61
in OCCCCO | -2.53
in OCCCO | -2.19
in OCCO | -1.5
in OCCOCCO | -2.16
in OCCOCCOCCO | -2.26
in OCCOCCOCCOCCO | -2.34
in OCCS | -2.58
in OCCc1ccccc1 | -3.32
in OCc1ccccc1 | -3.23
in OCc1ccco1 | -2.94
in S=C=S | -4.49
in c1ccc2c(c1)CCCC2 | -4.1
in c1ccc2ncccc2c1 | -3.61
in c1ccc(C2CCCCC2)cc1 | -4.03
in c1ccccc1 | -4.23
in c1ccncc1 | -3.75

CCCCCCC(C)=O
Details | solvation free energy, 298 K [kcal/mol]
in C1COCCO1 | -6.83
in CCCCCCC | -5.68
in CN(C)C=O | -6.23
in ClC(Cl)(Cl)Cl | -6.7
in NC=O | -5.06
in O | -2.92

COc1cc(C=O)cc(-c2cc(C=O)cc(OC)c2O)c1O
Details | solvation free energy, 298 K [kcal/mol]
in CCC(C)=O | -21.9
in Cc1ccccc1 | -19.6
in ClC=CCl | -20.6

Cc1ccccc1Cl
Details | solvation free energy, 298 K [kcal/mol]
in O | -1.14

O=C(O)c1ccccc1[N+](=O)[O-]
Details | solvation free energy, 298 K [kcal/mol]
in CCCCCCCCO | -12.5

II
Details | solvation free energy, 298 K [kcal/mol]
in Brc1ccccc1 | -6.1
in CC(C)CC(C)(C)C | -4.5
in CCCCCC | -4.67
in CCCCCCC | -4.66
in CCCCCl | -5.63
in CCO | -6.27
in Cc1ccc(C)cc1 | -6.21
in Cc1cccc(C)c1 | -6.25
in Cc1ccccc1C | -6.23
in ClC(Cl)(Cl)Cl | -5.25
in ClC(Cl)Cl | -5.73
in ClCCCl | -5.72
in ClCCl | -5.62
in Clc1ccccc1 | -5.81
in O | -2.54

Oc1ccc(I)cc1
Details | solvation free energy, 298 K [kcal/mol]
in O | -7.61

CCc1ccc(CC)cc1
Details | solvation free energy, 298 K [kcal/mol]
in CC(C)(C)O | -6.3

CC(C)C=O
Details | solvation free energy, 298 K [kcal/mol]
in CC(=O)N(C)C | -4.04
in CCCCN(C=O)CCCC | -3.78
in CCOC(C)=O | -4.05
in CN1CCCC1=O | -3.79
in CN1CCCCC1=O | -3.92
in CN(C)C=O | -4.09
in CNC(C)=O | -3.68
in O | -2.86
in O=CN1CCOCC1 | -3.63

CC(C)CCCCCCCOC(=O)c1ccccc1C(=O)OCCCCCCCC(C)C
Details | solvation free energy, 298 K [kcal/mol]
in O | -5.93

C=C(C)C1CCC(C)C(=O)C1 (stereo not given)
Details | solvation free energy, 298 K [kcal/mol]
in O | -3.75

CCCN(C)N=O
Details | solvation free energy, 298 K [kcal/mol]
in CC(C)CC(C)(C)C | -4.99

CCC(O)C(C)C (stereo not given)
Details | solvation free energy, 298 K [kcal/mol]
in CC(C)CC(C)(C)C | -4.53
in CCCCCCCC | -4.72
in CCCCCCCCCC | -4.67
in O | -3.88

CC(C)(C)Cl
Details | solvation free energy, 298 K [kcal/mol]
in Brc1cccc2ccccc12 | -3.15
in Brc1ccccc1 | -3.44
in C1CCCCC1 | -3.64
in C1CCOCC1 | -3.82
in C1COCCO1 | -3.36
in C=CCCCCCCCCCCCCCC | -3.07
in CC(=O)N(C)C | -3.1
in CC(=O)OCc1ccccc1 | -3.28
in CC(C)(C)O | -2.95
in CC(C)=O | -3.46
in CC(C)CC(C)(C)C | -3.29
in CC(C)OC(C)C | -3.53
in CC(O)C(C)O | -2.37
in CC(O)CCO | -2.14
in CC(O)CO | -2.29
in CCC(C)=O | -3.66
in CCC(O)CO | -2.76
in CCCCCC | -3.43
in CCCCCCC | -3.47
in CCCCCCCC | -3.35
in CCCCCCO | -3.14
in CCCCCO | -3.23
in CCCCO | -3.08
in CCO | -3.22
in CCOC(C)=O | -3.66
in CCOCC | -3.38
in CN1CCCC1=O | -2.97
in CN(C)C=O | -3.15
in CNC=O | -3.02
in CO | -3.11
in COC(C)(C)C | -3.7
in COCCO | -3.3
in Cc1ccc(C)cc1 | -3.58
in ClC(Cl)(Cl)Cl | -3.66
in ClCCCl | -3.69
in Clc1ccccc1 | -3.56
in N#Cc1ccccc1 | -3.15
in O | 1.09
in O=C1CCCCC1 | -3.64
in OCCO | -1.8
in OCCOCCO | -2.39
in OCCOCCOCCO | -2.49
in c1ccc2ncccc2c1 | -3.18
in c1ccccc1 | -3.93

CCCCCN(C)N=O
Details | solvation free energy, 298 K [kcal/mol]
in O | -5.05

CC1=CCC2(C(C)C)CC12 (stereo not given)
Details | solvation free energy, 298 K [kcal/mol]
in O | 0.5
